Each structure is given as a SMILES string.

The values below come from patent US7253286B2, “Nitrogen-containing aromatic derivatives” (Eisai Co., Ltd, priority 2000, dated 2007).

Experiment [1] deals with Human Umbilical Vein Endothelial Cells (HUVECs). Nature of the experiment: Inhibition against invasive tube formation by vascular endothelial cells in response to stimulation by angiogenic factor mixture. Format: cell-based. Set-up: key: the number of tubes formed in the absence of the test substance was designated as +++; scored on the 5-level scale of +++, ++, +, +/−, −; scored on the 5-level scale of +++, ++, +, +/−, −; scored on the 5-level scale of +++, ++, +, +/−, −; − was assigned if absolutely no tubes formed. Particulars: HUVEC on fibrin gel, EGF/FGF2/VEGF/HGF/TNF-α mixture, 6th day, MTT staining; for number of tubes formed in the fibrin gel (score) at 0.01 μM: test substance 0.01 μM; for number of tubes formed in the fibrin gel (score) at 0.1 μM: test substance 0.1 μM; for number of tubes formed in the fibrin gel (score) at 1.0 μM: test substance 1.0 μM. As for the experimental part:
Inhibition Against Invasive Tube Formation by Vascular Endothelial Cells in Response to Stimulation by Angiogenic Factor Mixture
Human Umbilical Vein Endothelial Cells (HUVECs) were isolated according to a reported method (Shinseikagaku Jikken Koza [New Biochemistry Experiment Lectures], “Saibo Baiyo Gijutsu” [Cell Culturing Techniques], p.197–202), and were cultured in a 5% CO2 incubator (37° C.) using EGM-2 medium (purchased from Clonetics Corp.) until the cells reached confluency. After adding 0.4 ml of bovine fibrinogen (purchased from Sigma Co.) to the inner well of a Transwell culturing plate (purchased from Coster Inc.), it was hardened with 0.7 units/ml of thrombin (purchased from Sigma Co.). The HUVECs were recovered using trypsin-EDTA and then suspended in human endothelial serum free medium basal growth medium (hereinafter abbreviated as SFM, purchased from GIBCO BRL), and 0.4 ml of the cell suspension (1.4×10^5 cells) was seeded onto the hardened fibrin gel and cultured for approximately 4 hours in a 5% CO2 incubator (37° C.). After 4 hours, there was added to the outer chamber of the Transwell 1.5 ml of an SFM solution containing a mixture of angiogenic factors {10 ng/ml EGF (purchased from GIBCO BRL), 30 ng/ml FGF2 (purchased from GIBCO BRL), 75 ng/ml VEGF (purchased from Wako Pure Chemical Industries Co., Ltd.), 50 ng/ml HGF (purchased from R&D Co.) and 7.5 ng/ml TNF-α (purchased from Genzyme Corp.) [The concentrations of the angiogenic factors differed slightly according to the HUVEC lot.]} and a diluted test substance, and culturing was carried out in a 5% CO2 incubator (37° C.). On the 2nd and 4th days after adding the test substance, the medium was exchanged with 1.5 ml of freshly prepared SFM solution containing the angiogenic factor mixture and test substance. Upon aspirating off the culture supernatant in the inner well on the 6th day after the initial addition of the test substance, 0.4 ml of a 3.3 mg/ml MTT solution dissolved in PBS (purchased from Sigma Corp.) was added and culturing was performed for approximately 1 hour in a 5% CO2 incubator (37° C.). The number of tubes formed in the fibrin gel stained with MTT was scored based on microscope observation. Specifically, the number of tubes formed in the absence of the test substance was designated as +++, while − was assigned if absolutely no tubes formed. The number of tubes formed in the presence of the test substance was scored on the 5-level scale of +++, ++, +, +/−, − to evaluate the strength of inhibition of the test substance.

The next experiment concerns the target T1, VEGFR2 (Homo sapiens, UniProt P35968).
T1 construct: coding for the cytoplasmic domain, beginning with lysine 791 and including the termination codon; made in house; host or cells: Sf9 insect cells (baculovirus, pFastBacHis)
Nature of the experiment: Inhibition against VEGFR2 kinase (receptor tyrosine kinase activity, HTRF method). Format: biochemical. Particulars: His6-VEGFR2 cytoplasmic domain, biotin-poly(GT) substrate, ATP, 30° C. 10 minutes, read-out: IC50 (concentration required for 50% inhibition of VEGFR2 kinase activity). The source says:
Measurement of Inhibition Against Receptor Tyrosine Kinase Activity
This assay is used to determine inhibition of a test substance on tyrosine kinase activity. DNA coding for the cytoplasmic domain of VEGFR2 is obtained by total cDNA synthesis (Edwards M, International Biotechnology Lab 5(3), 19–25, 1987) or by cloning. Expression in an appropriate expression system can produce a polypeptide with tyrosine kinase activity. […] For VEGFR2 (Genbank Accession No. L04947), the 1.7 kb DNA fragment described by Terman et al. (Oncogene, 6(9), 1677–1683, 1991), coding for the cytoplasmic domain, beginning with lysine 791 and including the termination codon, was isolated from a human placental cDNA library (purchased from Clontech Laboratories, Inc.) and cloned in a Baculovirus expression vector (pFastBacHis, purchased from GIBCO BRL) The recombinant construct was transfected into insect cells (Spondoptea frugiperda9 (Sf9)) to prepare a recombinant Baculovirus. (Instructions for preparation and use of recombinant Baculovirus maybe found in standard texts, such as “Bac-To-Bac Baculovirus Expression System” (GIBCO BRL).) The cytoplasmic fragment starting from lysine 398 (FGFR1, Genbank Accession No. X52833), the cytoplasmic fragment starting from lysine 558 (PDGFRβ, Genbank Accession No. M21616) or the cytoplasmic fragment starting from lysine 974 (HGFR, Genbank Accession No. J02958) may be cloned and expressed by the same method for use in assays for other tyrosine kinases. EGFR was purchased from Sigma Co. (Product No. E-2645).
For expression of the VEGFR2 tyrosine kinase, Sf9 cells were infected with the VEGFR2 recombinant virus and collected after 48 hours. The collected cells were rinsed with ice-cooled phosphate buffered saline (PBS) and then resuspended using 20 ml of ice-cooled Lysis Buffer (50 mM Tris-HCl (pH 8.5), 5 mM 2-mercaptoethanol, 100 mM KCl, 1 mM phenylmethylsulfonyl fluoride, 1% (v/v) NP-40) per 1.5×10^8 cells. The suspension was centrifuged at 12,000 rpm for 30 minutes at 4° C. and the supernatant was obtained.
The supernatant was added to a Ni—NTA agarose column (3 ml, purchased from Qiagen) equilibrated with Buffer A {20 mM Tris-HCl (pH 8.5), 5 mM 2-mercaptoethanol, 500 mM KCl, 20 mM imidazole, 10% (v/v) glycerol}. The column was washed with 30 ml of Buffer A, and then with 6 ml of Buffer B {20 mM Tris-HCl (pH 8.5), 5 mM 2-mercaptoethanol, 1M KCl, 10% (v/v) glycerol}, and finally with 6 ml of Buffer A. After washing, it was eluted with 6 ml of Buffer C {20 mM Tris-HCl (pH8.5), 5mM2-mercaptoethanol, 100 mMKCl, 100 mM imidazole, 10% (v/v) glycerol}. The eluate was placed on a dialysis membrane (purchased from Spectrum Laboratories) and dialyzed with a dialysis buffer {20 mM Tris-HCl (pH 7.5), 10% (v/v) glycerol, 1 mM dithiothreitol, 0.1 mM Na3VO4, 0.1 mM EGTA}. After dialysis, it was supplied for SDS-electrophoresis, and the recombinant protein (His6-VEGFR2, cytoplasmic domain of VEGFR2 fused with 6 histidine residues at the N-terminus) detected at a molecular weight of approximately 100 kDa with Coumassie Brilliant Blue staining was assayed using BSA (bovine serum albumin, purchased from Sigma Co.) as the standard substance, and stored at −80° C. until use. Using the same method for the cytoplasmic domains of FGFR1, PDGFRβ and HGFR yielded respective recombinant proteins fused with 6 histidine residues at the N-termini (His6-FGFR1, His6-PDGFRβ or His6-HGFR).
The tyrosine kinase reaction was conducted as follows. […]

Experiment [2] has as its system Human Umbilical Vein Endothelial Cells (HUVECs). Nature of the experiment: Inhibition against sandwich tube formation by vascular endothelial cells in response to stimulation by VEGF. Particulars: HUVEC in collagen gel sandwich, stimulation by VEGF (25 ng/ml VEGF and 10 ng/ml EGF), 4th day, total tube length, read-out: IC50 (concentration required for 50% inhibition of tube formation). Format: cell-based. Summed up:
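HUVECs were sandwiched between collagen gel layers in serum-free medium with 25 ng/ml VEGF plus 10 ng/ml EGF, with test substance added above the gel at 37 °C. On day 4 tubes were MTT-stained and total tube length measured by image analysis. IC50 is the concentration halving tube length relative to no-compound wells.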

T1 sequence (P35968 786-1356 limits assumed): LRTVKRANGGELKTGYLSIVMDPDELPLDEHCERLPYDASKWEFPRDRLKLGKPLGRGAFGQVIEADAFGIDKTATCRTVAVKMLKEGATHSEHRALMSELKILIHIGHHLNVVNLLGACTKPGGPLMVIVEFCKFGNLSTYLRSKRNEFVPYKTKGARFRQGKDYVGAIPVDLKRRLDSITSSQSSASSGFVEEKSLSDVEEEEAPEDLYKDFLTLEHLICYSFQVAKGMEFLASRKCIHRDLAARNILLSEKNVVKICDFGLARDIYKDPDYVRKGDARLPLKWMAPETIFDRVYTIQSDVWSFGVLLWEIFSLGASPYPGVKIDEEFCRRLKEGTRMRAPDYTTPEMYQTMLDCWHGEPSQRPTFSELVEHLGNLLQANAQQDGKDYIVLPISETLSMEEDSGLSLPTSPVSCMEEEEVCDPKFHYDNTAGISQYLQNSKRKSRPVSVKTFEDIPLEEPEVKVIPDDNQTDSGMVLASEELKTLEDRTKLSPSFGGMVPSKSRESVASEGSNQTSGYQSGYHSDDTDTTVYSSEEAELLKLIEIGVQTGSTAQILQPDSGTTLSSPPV

Regarding `COCCOc1cc2nccc(Oc3ccc(NC(=O)Nc4nccs4)c(F)c3)c2cc1C#N` [Example 25, N-(4-(6-cyano-7-(2-methoxyethoxy)-4-quinolyl)oxy-2-fluorophenyl)-N′-(1,3-thiazol-2-yl)urea], in experiment [1], the “number of tubes formed in the fibrin gel (score) at 0.01 μM” value was “++”, the “number of tubes formed in the fibrin gel (score) at 0.1 μM” value is given as “+/−” and the “number of tubes formed in the fibrin gel (score) at 1.0 μM” value was “+/−”. Also, on VEGFR2, the IC50 came to 5.5 nM.
On to `COc1cc2nccc(Oc3ccc(NC(=O)NC4CC4)cc3)c2cc1C(N)=O` [Example 121, 4-(4-((Cyclopropylamino)carbonyl)aminophenoxy)-7-methoxy-6-quinolinecarboxamide], for which the IC50 in experiment [2] is 42 nM; on VEGFR2, 8.7 nM.
For `O=C(Nc1ccc(Oc2ncnc3[nH]c(-c4ccc(OC[C@H](O)CN5CCCC5)cc4)cc23)cc1Cl)NC1CC1` [Example 159, 1-(2-Chloro-4-{6-[4-((2R)-2-hydroxy-3-pyrrolidinopropoxy)phenyl]-7H-pyrrolo[2,3-d]pyrimidin-4-yloxy]phenyl}-3-cyclopropylurea] the same measures were 0.6 nM and 25 nM.
As to `COCCOc1cc2nccc(Sc3ccc(NC(=O)Nc4ccc(F)cc4)s3)c2cc1C#N` [Example 253, 1-{5-[6-Cyano-7-(2-methoxyethoxy)-quinolin-4-ylsulfanyl]thiophen-2-yl}-3-(4-fluorophenyl)urea], the IC50 came to 40 nM in experiment [2] and 23 nM on VEGFR2.
For `COc1cc2nccc(Oc3ccc(NC(=O)Nc4ccc(F)cc4)cc3)c2cc1NC(C)=O` [Example 265, N-(4-{4-[3-(4-Fluorophenyl)ureido]phenoxy}-7-methoxyquinolin-6-yl)acetamide] the same measures were 0.6 nM and 6.2 nM.
For `COc1cc2nccc(Oc3ccc(NC(=O)Nc4ccc(F)cc4)cc3)c2cc1NS(C)(=O)=O` [Example 266, N-(4-{4-[3-(4-Fluorophenyl)ureido]phenoxy}-7-methoxyquinolin-6-yl)methanesulfoneamide] the same measures were 0.6 nM and 5.4 nM.
On to `O=C(Nc1ccc(Oc2ncnc3[nH]c(-c4ccccn4)cc23)cc1F)NC1CC1` [Example 283, 1-Cyclopropyl-3-[2-fluoro-4-(6-(pyridin-2-yl)-7H-pyrrolo[2,3-d]pyrimidin-4-yloxy)phenyl]urea], for which the results for the IC50 (in experiment [2]; at VEGFR2) were 36 nM and 26 nM, respectively.
For `COc1cc2nccc(Oc3ccc4c(ccn4C(=O)NCCF)c3)c2cc1C(N)=O` [Example 314, 6-Carbamoyl-4-[1-(2-fluoroethylcarbamoyl)1H-indol-5-yloxy]-7-methoxyquinoline] the same measures were 4.2 nM and 5.3 nM.
`CONC(=O)c1cc2c(Oc3ccc(NC(=O)Nc4nccs4)cc3)ccnc2cc1OC` [Example 346, N6-Methoxy-7-methoxy-4-(4-(((1,3-thiazol-2-ylamino)carbonyl)amino)phenoxy)-6-quinolinecarboxamide]: the IC50 in experiment [2] amounted to 25 nM; at VEGFR2, 4.6 nM.
Take `COc1cc2nccc(Oc3ccc(N(C)C(=O)Nc4ccc(F)cc4)cc3)c2cc1C(N)=O` [Example 348]: in experiment [1], the “number of tubes formed in the fibrin gel (score) at 0.01 μM” value is “+/−”, the “number of tubes formed in the fibrin gel (score) at 0.1 μM” value is listed as “−” and the “number of tubes formed in the fibrin gel (score) at 1.0 μM” value is listed as “−”. Moreover, on VEGFR2, the IC50 was determined as 4.6 nM.
As to `COCCOc1cc2nccc(Oc3ccc(NC(=O)NC4CC4)c(Cl)c3)c2cc1C(N)=O` [Example 381, 4-(3-Chloro-4-(cyclopropylaminocarbonyl)aminophenoxy)-7-(2-methoxyethoxy)-6-quinolinecarboxamide], the values for the IC50 (in experiment [2]; on VEGFR2) were 4.7 nM and 2.6 nM, respectively.
The like results for `NC(=O)c1cc2c(Oc3ccc(NC(=O)NC4CC4)c(Cl)c3)ccnc2cc1OCCCN1CCOCC1` [Example 382, 4-(3-Chloro-4-(cyclopropylaminocarbonyl)aminophenoxy)-7-(3-(4-morpholino)propoxy)-6-quinolinecarboxamide] were, in that order, 4.6 nM and 9 nM.
For `COc1cc2nccc(Oc3ccc(NC(=O)NC4CC4)c(Cl)c3)c2cc1C(=O)NCC#N` [Example 441, N6-Cyanomethyl-4-(3-chloro-4-(((cyclopropylamino)carbonyl)amino)phenoxy)-7-methoxy-6-quinolinecarboxamide] the same measures were 3.6 nM and 2.8 nM.
For `CCCC(=O)Nc1cc(Oc2ccc(NC(=O)Nc3ccc(F)cc3)cc2)ccn1` [Example 463, N-[4-(2-Butanoylaminopyridin-4-yl)oxyphenyl]-N′-(4-fluorophenyl)urea] the same measures were 26 nM and 5.9 nM.
